Experimental data as given in patent US20220096473A1, “METHOD FOR TREATING AN ACUTE MYELOID LEUKEMIA” (PTC THERAPEUTICS, INC., priority 2019, published 2022).

Key:
[1] = tested on: MOLT human acute lymphoblastic leukemia (ALL) tumor cells; assay: ALL mouse model, IV-inoculated MOLT human ALL tumor cells in NOD-SCID mice, survival; format: in vivo; details: vehicle 70 days
Description: FIG. 6. Shown is a survival curve for an in vivo ALL (Acute Lymphocytic Leukemia) MOLT-4 (CD3 […]) xenograft tumor NSG mouse model after up to 160 days of treatment with Compound 2 vs. vs. mice treated with vehicle, Compound 1, doxorubicin (Dox) and cytarabine (Ara-C). Under various dosing regimens.
Male NOD-SCID mice were inoculated with MOLT human acute lymphoblastic leukemia (ALL) tumor cells from ATCC (1×10^7 cells in 200 μL PBS) by intravenous (IV) injection of 0.2 ml/mouse. Seven days after tumor inoculation, mice were randomized into seven groups of five mice per group, and each group was dosed as follows: (Group 1) orally administered vehicle of 0.5% HPMC and 0.1% Tween 80 daily, (Group 2) orally administered 10 mg/kg Compound 1 twice per week, (Group 3) orally administered 10 mg/kg Compound 2 daily, (Group 4) administered 1 mg/kg doxorubicin by intraperitoneal (IP) injection once per week, (Group 5) administered 0.5 mg/kg doxorubicin by IP injection once per week, (Group 6) administered 50 mg/kg Ara-C twice per week by IP injection, and (Group 7) administered 70 mg/kg Ara-C by IP injection once per week.

P31-Fujioka cell line = P31-Fujioka cell line xenograft survival in immunodeficient NRG-SGM3 mice; format: in vivo, mouse; details: oral Compound 1 from ten days after injection, up to 34 days of treatment, n=5 mice per group, P<0.002
Description: FIG. 1. Shown is a survival curve for an in vivo P31-Fujioka cell line xenograft tumor […] mouse model after up to 34 days of treatment with Compound 1 vs. vehicle treated animals (n=5 mice per group, *P<0.002).
Immunodeficient mice (NRG-SGM3) were injected with the P31-Fujioka cell line. Ten days after injection, engraftment of P31 cells in mice was confirmed by flow-cytometric assessment of the human CD45 marker (data not shown). One cohort of mice was orally administered Compound 1 and an age and engraftment matched hohort was administered vehicle control.

[2] = tested on: MOLM13 human AML tumor cells; assay: AML mouse model, IV-inoculated human AML tumor cells in NOD-SCID mice, survival; format: in vivo
Description: FIG. 3. Shown is a survival curve for an in vivo AML NSG mouse model after up to 75 days of treatment with Compound 1 vs. vehicle treated mice (n=5 in vehicle group and n=2 in Compound 1 group).
FIG. 5. Shown is a survival curve for an in vivo AML NSG mouse model after up to 80 days of treatment with a combination of Compound 1 and Compound 2 vs. mice treated with vehicle, Compound 1 alone and Compound 2 alone
The following study was conducted in a mouse model of acute myeloid leukemia (AML) based on intravenous (IV) injection of human […] into male non-obese diabetic (NOD) severe combined immunodeficiency (SID) mice. MOLT-4 cells are CD3 positive. The NOD-SCID mice were obtained from Jackson Laboratory, Bar Harbor Me.
Male NOD-SCID mice were inoculated with MOLM13 human AML tumor cells from ATCC (5×10^6 cells in 200 μL PBS) by intravenous (IV) injection of 0.2 ml/mouse. Three days after tumor inoculation, mice were randomized into four groups of five mice per group, and each group was dosed as follows once each day: (Group 1) orally administered vehicle (0.5% HPMC), (Group 2) orally administered 12.5 mg/kg of Compound 1 in HPMC, (Group 3) orally administered 10 mg/kg of Compound 2 in HPMC, and (Group 4) orally administered a combination of 12.5 mg/kg of Compound 1 and 10 mg/kg of Compound 2 in HPMC for up to 75 days.

[3] = tested on: microtubule polymerization; assay: Mechanistic studies of microtubule polymerization; format: biochemical
Description: In addition, Compound 1 combines additively or synergistically with standard clinical regimens, yielding potent and durable cancer regression.

CALM-AF10-mediated AML = CALM-AF10-mediated AML leukemogenesis in mouse and human models; details: in vitro and in vivo
p53 mutant mediated AML = details: cited from earlier work
leukemia cell growth = details: mouse xenograft models; cited from earlier work

## Nc1ccn([C@@H]2O[C@H](CO)[C@@H](O)[C@@H]2O)c(=O)n1 [Ara-C, cytarabine]
[1]; Group 6, 50 mg/kg IP twice per week
  maximum number of days of survival: 65 days
[1]; Group 7, 70 mg/kg IP once per week
  maximum number of days of survival: 70 days

## Cc1nc2ccc(F)cc2n1-c1nc(N)c(F)c(Nc2ccc(C(F)(F)F)cc2)n1 [Compound 1, 5-fluoro-2-(6-fluoro-2-methyl-1H-benzo[d]imidazol-1-yl)-N^4-[4-(trifluoromethyl)phenyl]pyrimidine-4,6-diamine]
P31-Fujioka cell line
  latency of disease (survival curve) vs vehicle control: significantly delayed the latency of disease
[2]; 12.5 mg/kg Compound 1 orally once each day
  survival vs mice administered Compound 2 alone: survived significantly longer
[2]; 12.5 mg/kg orally once each day in HPMC, up to 75 days
  survival (prolongation of life) vs vehicle: significant prolongation of life
[1]; Group 2, 10 mg/kg orally twice per week
  maximum number of days of survival: 65 days
[3]
  microtubule polymerization: inhibit microtubule polymerization
CALM-AF10-mediated AML
  leukemogenesis: impairs leukemogenesis in vitro and in vivo
p53 mutant mediated AML; p53 mutant mediated AML
  MCL-1 expression: reduced MCL-1 expression
p53 mutant mediated AML; patient-derived CD34+CD38low/- stem/progenitor cells
  induction of apoptosis: Apoptosis was induced in a p53-independent manner
Leukemia cell growth
  in vivo anti-leukemia activity: inhibited leukemia cell growth in vivo while sparing normal hematopoietic cells

## COc1ccc([C@H]2c3[nH]c4ccc(Cl)cc4c3CCN2C(=O)Oc2ccc(Cl)cc2)cc1 [Compound 2, 4-chlorophenyl (S)-6-chloro-1-(4-methoxyphenyl)-1,3,4,9-tetrahydro-2H-pyrido[3,4-b]indole-2-carboxylate]
[1]; Group 3, 10 mg/kg orally daily
  maximum number of days of survival: 160 days

## COc1cccc2c1C(=O)c1c(O)c3c(c(O)c1C2=O)C[C@@](O)(C(=O)CO)C[C@@H]3O[C@H]1C[C@H](N)[C@H](O)[C@H](C)O1 [doxorubicin]
[1]; Group 4, 1 mg/kg IP once per week
  maximum number of days of survival: 40 days
[1]; Group 5, 0.5 mg/kg IP once per week
  maximum number of days of survival: 40 days
